From patent US20080255192A1, “Methods and Compositions for Selectin Inhibition” (Wyeth, priority 2007, published 2008)

Biological target: T1, P-selectin/PSGL-1 interaction (Homo sapiens, UniProt P16109)
T1 construct: comprised of the lectin and epidermal growth factor-like (EGF) domains expressed in CHO cells; made in house; host or cells: CHO cells (P-LE)
T1 sequence (P16109 42-198): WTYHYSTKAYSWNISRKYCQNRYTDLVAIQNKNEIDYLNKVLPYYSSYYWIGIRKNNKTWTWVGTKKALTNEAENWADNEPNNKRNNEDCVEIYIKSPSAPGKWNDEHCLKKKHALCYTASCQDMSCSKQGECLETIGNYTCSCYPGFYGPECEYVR
Experiment: Biacore P-Selectin/PSGL-1 Inhibition Assay (surface plasmon resonance)
Format: binding
Details: 250 uM test compound, 500 nM P.LE, immobilized PSGL-1 19ek, 10% DMSO, pH 7.4
Description: Surface plasmon resonance assays were performed on a Biacore 3000 instrument (Biacore Inc. Piscataway, N.J.) at 25° C. at a flow rate of 30 μL/minute and each assay consisted of a 60-second equilibration, a 60-μL sample injection (kinject), and a 300-second dissociation.
A purified, monomeric, truncated form of human PSGL-1, “19ek”, that contained all the necessary P-selectin binding determinants (see Goetz, et al., J. Cell Biol., 1997, 137: 509-519; and Sako, et al., Cell, 1995, 83: 323-331) was biotinylated via amine chemistry (Sulfo-NHS-LC-Biotin, Peirce) at a unique C-terminal lysine residue (see Somers, et al., Cell, 2000, 103: 467-479) and immobilized on a Biacore SA sensor chip (Biacore Inc.), using an HBS-EP buffer (Biacore Inc.), and the target 600-700 RU. The coated chip was re-equilibrated with an HBS-P buffer (Biacore Inc.) to which 1 mM CaCl2 and 1 mM MgCl2 (both from Fisher) were added to ensure sufficient calcium for the calcium-dependent interaction between the receptor and the ligand.
Test compounds were incubated for 1 hour in a 1.1× Biacore assay buffer. Each solution was centrifuged through a 0.2 µm filter, using a 96-well plate format (Millipore). Glycyrrhizin tri-sodium salt (TCI) was prepared as a positive control in parallel with the test compounds, in the same manner described above.
A soluble recombinant truncated form of human P-selectin, P-LE, comprised of the lectin and epidermal growth factor-like (EGF) domains expressed in CHO cells (see Somers, et al., Cell, 2000, 103: 467-479) was added to each filtered test compound solution. Final concentrations of reagents were 500 nM P.LE, 250 or 500 μM test compound (depending on structure) or 1 mM glycyrrhizin, 10% DMSO, and 1× Biacore buffer ([…], 150 mM NaCl, 1 mM CaCl2, and 1 mM MgCl2 (all reagents from Fisher)), with a pH of 7.4. Compounds active at 250 μM were titrated to further define activity. Test samples were supplied to the Biacore instrument in a 96-well plate.
The Biacore raw data file was exported as a text file to an Excel spreadsheet, where the buffer blanks bracketing the samples were averaged for each Biacore instrument flow cell (Fc), and subtracted from the averaged uninhibited P.LE samples and from all the other samples. The reference signal from Fcl (uncoated) was then subtracted from its corresponding active (coated) signal for each injection, a process known as double referencing (see Myszka, J. Mol. Recognit., 1999, 12(5): 279-284). The percent inhibition of binding was calculated by dividing the reference-subtracted inhibited signal by the reference-subtracted uninhibited signal, subtracting this value from 1, and multiplying the resulting value by 100. The replicate percent inhibition values were averaged and expressed as the mean ±standard deviation. The inter-experiment standard deviation of calculated percent inhibitions in the Biacore assay was ±5.

Compound	inhibition at 250 µM
O=C(O)c1c(O)c(C2(c3ccc(Cl)cc3)CC2)nc2c(OC(F)(F)F)cccc12 [Compound 1, 2-(1-(4-chlorophenyl)cyclopropyl)-3-hydroxy-8-(trifluoromethoxy)quinoline-4-carboxylic acid]	37%
CCC(C)c1cccc2c(C(=O)O)c(O)c(C3(c4ccc(Cl)cc4)CC3)nc12 (centres unmarked) [Compound 3, 8-sec-butyl-2-(1-(4-chlorophenyl)cyclopropyl)-3-hydroxyquinoline-4-carboxylic acid]	18%
O=C(O)c1c(O)c(C2(c3ccc(Cl)cc3)CC2)nc2c(Cl)cccc12 [Compound 5, 8-chloro-2-(1-(4-chlorophenyl)cyclopropyl)-3-hydroxyquinoline-4-carboxylic acid]	93%
O=C(O)c1c(O)c(C2(c3ccc(Cl)cc3)CC2)nc2ccccc12 [Compound 8, 2-(1-(4-chlorophenyl)cyclopropyl)-3-hydroxyquinoline-4-carboxylic acid]	≤ 10%
O=C(O)c1c(O)c(C2(c3ccc(Cl)cc3)CC2)nc2c(Br)cccc12 [Compound 9, 8-bromo-2-(1-(4-chlorophenyl)cyclopropyl)-3-hydroxyquinoline-4-carboxylic acid]	46%
Cc1cc(C)c2nc(C3(c4ccc(Cl)cc4)CC3)c(O)c(C(=O)O)c2c1 [Compound 10, 2-(1-(4-chlorophenyl)cyclopropyl)-3-hydroxy-6,8-dimethylquinoline-4-carboxylic acid]	47%
Cc1cccc2c(C(=O)O)c(O)c(C3(c4ccc(Cl)cc4)CC3)nc12 [Compound 11, 2-(1-(4-chlorophenyl)cyclopropyl)-3-hydroxy-8-methylquinoline-4-carboxylic acid]	43%
CCc1ccc2c(C(=O)O)c(O)c(C3(c4ccc(Cl)cc4)CC3)nc2c1 [Compound 12, 2-(1-(4-chlorophenyl)cyclopropyl)-7-ethyl-3-hydroxyquinoline-4-carboxylic acid]	13%
Cc1ccc2c(C(=O)O)c(O)c(C3(c4ccc(Cl)cc4)CC3)nc2c1 [Compound 13, 2-(1-(4-chlorophenyl)cyclopropyl)-3-hydroxy-7-methylquinoline-4-carboxylic acid]	≤ 10%
CCC(C)c1cccc2c(C(=O)O)c(O)c(C3(c4ccccc4)CC3)nc12 (centres unmarked) [Compound 15, 8-sec-butyl-3-hydroxy-2-(1-phenylcyclopropyl)quinoline-4-carboxylic acid]	63%
O=C(O)c1c(O)c(C2(c3ccc(Cl)cc3)CC2)nc2ccc(F)cc12 [Compound 17, 2-(1-(4-chlorophenyl)cyclopropyl)-6-fluoro-3-hydroxyquinoline-4-carboxylic acid]	≤ 10%
O=C(O)c1c(O)c(C2(c3ccc(Cl)cc3)CC2)nc2ccc(OC(F)(F)F)cc12 [Compound 21, 2-(1-(4-chlorophenyl)cyclopropyl)-3-hydroxy-6-(trifluoromethoxy)quinoline-4-carboxylic acid]	28%
O=C(O)c1c(O)c(C2(c3ccc(Cl)cc3)CC2)nc2ccc(Cl)cc12 [Compound 22, 6-chloro-2-(1-(4-chlorophenyl)cyclopropyl)-3-hydroxyquinoline-4-carboxylic acid]	26%
O=C(O)c1c(O)c(C2(c3ccc(Cl)cc3)CC2)nc2ccc(C(F)(F)F)cc12 [Compound 24, 2-(1-(4-chlorophenyl)cyclopropyl)-3-hydroxy-6-(trifluoromethyl)quinoline-4-carboxylic acid]	34%
CCc1ccc2nc(C3(c4ccccc4)CC3)c(O)c(C(=O)O)c2c1 [Compound 27, 6-ethyl-3-hydroxy-2-(1-phenylcyclopropyl)quinoline-4-carboxylic acid]	≤ 10%
O=C(O)c1c(O)c(C2(c3ccccc3)CC2)nc2ccc(Cl)cc12 [Compound 30, 6-chloro-3-hydroxy-2-(1-phenylcyclopropyl)quinoline-4-carboxylic acid]	≤ 10%
O=C(O)c1c(O)c(C2(c3ccccc3)CC2)nc2ccc(C(F)(F)F)cc12 [Compound 32, 3-hydroxy-2-(1-phenylcyclopropyl)-6-(trifluoromethyl)quinoline-4-carboxylic acid]	≤ 10%

Now from value to compound:

inhibition at 250 µM	Compound
67%	CCc1cccc2c(C(=O)O)c(O)c(C3(c4ccc(Cl)cc4)CC3)nc12 [Compound 2, 2-(1-(4-chlorophenyl)cyclopropyl)-8-ethyl-3-hydroxyquinoline-4-carboxylic acid]
≤ 10%	CC(C)(C)c1cccc2c(C(=O)O)c(O)c(C3(c4ccc(Cl)cc4)CC3)nc12 [Compound 4, 8-tert-butyl-2-(1-(4-chlorophenyl)cyclopropyl)-3-hydroxyquinoline-4-carboxylic acid]
98%	O=C(O)c1c(O)c(C2(c3ccc(Cl)cc3)CC2)nc2c(-c3ccccc3)cccc12 [Compound 6, 2-(1-(4-chlorophenyl)cyclopropyl)-3-hydroxy-8-phenylquinoline-4-carboxylic acid]
≤ 10%	O=C(O)c1c(O)c(C2(c3ccc(Cl)cc3)CC2)nc2c(F)cccc12 [Compound 7, 2-(1-(4-chlorophenyl)cyclopropyl)-8-fluoro-3-hydroxyquinoline-4-carboxylic acid]
23%	CCc1cccc2c(C(=O)O)c(O)c(C3(c4ccccc4)CC3)nc12 [Compound 14, 8-ethyl-3-hydroxy-2-(1-phenylcyclopropyl)quinoline-4-carboxylic acid]
28%	O=C(O)c1c(O)c(C2(c3ccc(Cl)cc3)CC2)nc2cc(Cl)ccc12 [Compound 16, 7-chloro-2-(1-(4-chlorophenyl)cyclopropyl)-3-hydroxyquinoline-4-carboxylic acid]
28%	O=C(O)c1c(O)c(C2(c3ccc(Cl)cc3)CC2)nc2ccc(Br)cc12 [Compound 18, 6-bromo-2-(1-(4-chlorophenyl)cyclopropyl)-3-hydroxyquinoline-4-carboxylic acid]
≤ 10%	Cc1ccc2nc(C3(c4ccc(Cl)cc4)CC3)c(O)c(C(=O)O)c2c1 [Compound 19, 2-(1-(4-chlorophenyl)cyclopropyl)-3-hydroxy-6-methylquinoline-4-carboxylic acid]
≤ 10%	COc1ccc2nc(C3(c4ccc(Cl)cc4)CC3)c(O)c(C(=O)O)c2c1 [Compound 20, 2-(1-(4-chlorophenyl)cyclopropyl)-3-hydroxy-6-methoxyquinoline-4-carboxylic acid]
≤ 10%	O=C(O)c1c(O)c(C2(c3ccc(Cl)cc3)CC2)nc2ccc(O)cc12 [Compound 23, 2-(1-(4-chlorophenyl)cyclopropyl)-3,6-dihydroxyquinoline-4-carboxylic acid]
14%	CC(C)c1ccc2nc(C3(c4ccc(Cl)cc4)CC3)c(O)c(C(=O)O)c2c1 [Compound 25, 2-(1-(4-chlorophenyl)cyclopropyl)-3-hydroxy-6-isopropylquinoline-4-carboxylic acid]
≤ 10%	O=C(O)c1c(O)c(C2(c3ccccc3)CC2)nc2cc(Cl)ccc12 [Compound 26, 7-chloro-3-hydroxy-2-(1-Phenylcyclopropyl)quinoline-4-carboxylic acid]
≤ 10%	CCc1ccc2c(C(=O)O)c(O)c(C3(c4ccccc4)CC3)nc2c1 [Compound 28, 7-ethyl-3-hydroxy-2-(1-phenylcyclopropyl)quinoline-4-carboxylic acid]
10%	O=C(O)c1c(O)c(C2(c3ccccc3)CC2)nc2ccc(OC(F)(F)F)cc12 [Compound 29, 3-hydroxy-2-(1-phenylcyclopropyl)-6-(trifluoromethoxy)quinoline-4-carboxylic acid]
≤ 10%	Cc1cccc2c(C(=O)O)c(O)c(C3(c4ccccc4)CC3)nc12 [Compound 31, 3-hydroxy-8-methyl-2-(1-phenylcyclopropyl)quinoline-4-carboxylic acid]
